Several values for one entry are separate records, joined by “and”; a condition that tells them apart may be missing. Equal values may be shown once.
How the values were obtained:
[1] = biological target: E. coli IP kinase (ychB, SEQ ID NO:6), partially purified (Escherichia coli, UniProt P62615); assay: Kinase assay, partially purified recombinant E. coli IP kinase; format: biochemical; settings: for Cofactor / phosphate donor requirement of kinase activity: IP as substrate, partially purified E. coli kinase; for Phosphorylating activity with substrate, in words, partially purified E. coli kinase: partially purified protein
Sequence of E. coli IP kinase (ychB, SEQ ID NO:6), partially purified (P62615 whole entry): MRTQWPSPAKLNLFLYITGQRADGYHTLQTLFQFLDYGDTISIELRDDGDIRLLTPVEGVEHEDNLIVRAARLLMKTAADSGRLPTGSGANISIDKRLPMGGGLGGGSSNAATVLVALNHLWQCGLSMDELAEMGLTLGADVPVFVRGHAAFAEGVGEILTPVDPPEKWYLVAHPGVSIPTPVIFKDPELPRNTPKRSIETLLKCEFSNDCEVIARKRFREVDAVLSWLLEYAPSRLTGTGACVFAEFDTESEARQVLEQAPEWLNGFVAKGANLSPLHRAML

[2] = biological target: T1, recombinant peppermint kinase (isopentenyl monophosphate kinase, SEQ ID NO:2) (Mentha piperita, UniProt P56848); assay: Kinase assay, recombinant peppermint IP kinase, crude extracts of transformed E. coli; format: biochemical, peppermint (Mentha x piperita); settings: crude extract, standard assay conditions
T1 sequence (P56848 98-405): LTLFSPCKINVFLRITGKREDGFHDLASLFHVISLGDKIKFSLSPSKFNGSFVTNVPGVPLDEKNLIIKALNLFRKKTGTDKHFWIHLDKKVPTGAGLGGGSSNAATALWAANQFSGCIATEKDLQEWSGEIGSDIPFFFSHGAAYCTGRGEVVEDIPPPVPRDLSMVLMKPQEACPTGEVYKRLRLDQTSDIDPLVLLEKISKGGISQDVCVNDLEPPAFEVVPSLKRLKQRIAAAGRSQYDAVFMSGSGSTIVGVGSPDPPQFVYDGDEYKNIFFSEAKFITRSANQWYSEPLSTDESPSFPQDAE

[3] = system: E. coli background (repressed, 0.02% glucose); assay: Kinase assay, E. coli background (repressed) controls; format: biochemical; settings: crude extract, transgene repressed with 0.02% glucose; rates are minimums
[4] = biological target: E. coli IP kinase (ychB, SEQ ID NO:6) (Escherichia coli, UniProt P62615); assay: Kinase assay, recombinant E. coli IP kinase (induced), crude extracts; format: biochemical; settings: crude extract, induced with 0.02% arabinose; rates are minimums
Sequence of E. coli IP kinase (ychB, SEQ ID NO:6) (P62615 whole entry): as the sequence (P62615 whole entry) above

[5] = system: isolated peppermint oil gland secretory cells; assay: Feeding studies with isolated peppermint oil gland secretory cells, incorporation into terpenoids; format: cell-based, peppermint (Mentha x piperita L. cv. Black Mitcham); settings: radiolabeled precursor, 23° C., 2 h; average of two experiments; includes geraniol and farnesol
Procedure: Isolation of and Feeding Studies with Peppermint Oil Gland Secretory Cells: Leaves (15-20 g; <10 mm in length) were excised from peppermint plants (Mentha x piperita L. cv. Black Mitcham) and the oil gland secretory cells were isolated by the glass bead abrasion method (McCaskill, D. & Croteau, R., Planta, 197:49-56 [1995]). Following isolation, the secretory cells were washed with 25 mM Tris/HCl buffer (pH 7.3) containing 200 mM sorbitol, 10 mM sucrose, 5 mM MgCl2, 10 mM KCl, 1 mM ethyleneglycol bis(β-aminoethyl ether), 8.5 mM Na2 HPO4, and 0.1 mM Na4 P2 O7, and then suspended in the same buffer supplemented with 2 mM ATP, 0.1 mM NADPH, 0.1 mM NAD^+, 5 mM phosphoenol pyruvate, and 5 mM glucose-6-phosphate. Cell density was determined using a hemocytometer and was adjusted to 1-2×10^5 cellular disks (each containing eight secretory cells) per milliliter suspension. Aliquots (1-1.5 ml) were transferred to 15 ml screw-cap glass vials, and the suspended cells were aerated and incubated at 23° C. for 2 h. At the end of the incubation period, the suspension was extracted three times with 1 ml diethyl ether. The combined organic extract was washed with 1 ml of 1 M Na2 CO3 and dried over Na2 SO4. An aliquot was removed for liquid scintillation counting and, to the remainder, authentic standards (10-50 μg each) of isopentenol, dimethylallyl alcohol, geraniol, farnesol, limonene, menthone, menthol, pulegone, humulene, and caryophyllene were added. These extracts were then slowly concentrated on ice under a gentle stream of N2 to ~200 μl, and were then transferred to conical glass vials and further concentrated to 5-10 μl at 20° C. in preparation for chromatographic analysis.
Radio-GLC Analysis of Peppermint Isoprenoids: Radio-GC was performed according to a published method (Croteau, R. & Satterwhite, D. M. J. Chromatog. 500:349-354 [1990]) with several modifications; 0.25 mm i.d.×30 m AT 1000 fused silica column with 0.2 μm film thickness (Alltech); helium carrier gas at 3-6 ml/min^-1; temperature program from 70 to 200° C. at 5° C./min^-1; injector at 200° C.; thermal conductivity detector at 220° C. and 140 mA; propane quench gas at 10-15 ml/min^-1. The relative peak area corresponding to each biosynthetic product was converted to dpm as a fraction of the total radioactivity determined by liquid scintillation counting prior to concentration. The absolute amount of each component formed was then calculated based on the specific activity of the corresponding radiolabeled substrate.

With `Nc1ccn([C@@H]2O[C@H](COP(=O)(O)OP(=O)(O)OP(=O)(O)O)[C@@H](O)[C@H]2O)c(=O)n1` [CTP] the “Cofactor / phosphate donor requirement of kinase activity” value (“Cofactor / phosphate donor requirement” below) [1] was “did not serve as alternate phosphate donors”.
In the case of `O=c1ccn([C@@H]2O[C@H](COP(=O)(O)OP(=O)(O)OP(=O)(O)O)[C@@H](O)[C@H]2O)c(=O)[nH]1` [UTP], the “Cofactor / phosphate donor requirement” value [1] is reported as “did not serve as alternate phosphate donors”.
For `CC(C)=CCO` [DMA, dimethylallyl alcohol], the “Kinase activity with substrate, recombinant peppermint kinase” value [2] was ≤ 0.01 pmol (s g protein)^-1, the “Rate (kinase activity with substrate), E. coli (repressed)” value [3] was < 0.01 pmol/s · g protein and the “Rate (kinase activity with substrate), E. coli (induced)” value [4] was < 0.01 pmol/s · g protein. For the same molecule, the “Rate (kinase activity with substrate), E. coli (partially purified)” value ([1]; Ni2+ affinity-purified enzyme, averages with standard deviation) was 11 ± 5 pmol/s · g protein, the “Phosphorylating activity with substrate, in words, partially purified E. coli kinase” value [1] was “readily catalyzed the conversion” and the “Total Terpenoids (C10 + C15), rate of incorporation into total monoterpenoids and sesquiterpenoids” value (“Total Terpenoids (C10 + C15), rate” below) [5] was “negligible”.
In the case of `C[C@](O)(CO)[C@H](O)COP(=O)(O)O` [MEP, 2-C-methylerythritol-4-phosphate], the “Kinase activity with substrate, recombinant peppermint kinase” value [2] is reported as “less than 0.2 pmol (s g protein)^-1”, the “Rate (kinase activity with substrate), E. coli (repressed)” value [3] is reported as < 0.2 pmol/s · g protein and the “Rate (kinase activity with substrate), E. coli (induced)” value [4] is reported as < 0.2 pmol/s · g protein. The “Phosphorylating activity with substrate, in words, partially purified E. coli kinase” value [1] was “no phosphorylating activity was detectable”.
`CC(C)=CCOP(=O)(O)O` [DMAP, dimethylallyl monophosphate] was tested, and the “Total Terpenoids (C10 + C15), rate” value [5] was 6 pmol (h 10^5 cell clusters)^-1 and < 6 pmol (h 10^5 cell clusters)^-1.
With `CC(C)=CCOP(=O)(O)OP(=O)(O)O` [DMAPP, dimethylallyl diphosphate] the “Total Terpenoids (C10 + C15), rate” value [5] was 4 pmol (h 10^5 cell clusters)^-1 and < 6 pmol (h 10^5 cell clusters)^-1.
With `C=C(C)CCO` [ISO, isopentenol] the “Total Terpenoids (C10 + C15), rate” value [5] was 304 pmol (h 10^5 cell clusters)^-1.
For `Nc1ncnc2c1ncn2[C@@H]1O[C@H](COP(=O)(O)OP(=O)(O)OP(=O)(O)O)[C@@H](O)[C@H]1O` [ATP], the “Cofactor / phosphate donor requirement” value [1] was “dependent upon the presence”.
With `Nc1nc2c(ncn2[C@@H]2O[C@H](COP(=O)(O)OP(=O)(O)OP(=O)(O)O)[C@@H](O)[C@H]2O)c(=O)[nH]1` [GTP] the “Cofactor / phosphate donor requirement” value [1] was “did not serve as alternate phosphate donors”.
`[Cl-].[Cl-].[Mg+2]` [MgCl2] was tested, and the “Cofactor / phosphate donor requirement” value [1] was “dependent upon the presence”.
For `C=C(C)CCOP(=O)(O)O` [IP, isopentenyl monophosphate], the “Total Terpenoids (C10 + C15), rate” value [5] was 43 pmol (h 10^5 cell clusters)^-1.
`C=C(C)CCOP(=O)(O)OP(=O)(O)O` [IPP, isopentenyl diphosphate] was tested, and the “Total Terpenoids (C10 + C15), rate” value [5] was 561 pmol (h 10^5 cell clusters)^-1.

Reference: patent US6235514A, “Nucleic acid molecules encoding isopentenyl monophosphate kinase, and methods of use” (Washington State University Research Foundation, priority 1999, dated 2001)
